# In patent US20240058318A1, “DEGRADING PKCB1 TO TREAT CANCER” (Mayo Foundation for Medical Education and Research, priority 2020, published 2024):
# “Also recorded” adds a separate entry of the source.
# Key:
# [1] = tested on: PKCβ1, E2F1, and Cyclin D1; assay: Western blot, BT549 and MDAMB436 cells (Example 6); type: cell-based; conditions: 1 μM, 24, 48, 72 hours
# Procedure: TNBC BT549 and MDAMB436 cells were cultured in phenol-red free DMEM/F12 medium supplemented with 10% fetal bovine serum (FBS) and 1% AA. On day 1, cells were plated at a density of 2×10^5 BT549 cells or 4×10^5 MDAMB436 cells in a 6-well plate (two wells per treatment). The next day, cells were treated with DMSO, 1 μM Pr-9 (positive control), 1 μM Pr-9-1, 1 μM Pr-9-4, or 1 μM ENDX (negative control). Radioimmunoprecipitation Assay (RIPA) protein lysates were collected 24, 48, and 72 hours after treatment.
# For western blot analysis, […] of protein lysates were run on Criterion precast 10% Bis-Tris gel, transferred to PVDF membrane, incubated in TBST-5% milk for one hour, and then incubated overnight with PKCβ1 (SC8049, mouse, 1:200), E2F1 (SC251, mouse, 1:250), Cyclin D1 (CS2978, rabbit, 1:1000), or Actin (Sigma A2228, mouse, 1:10,000 or CS8457, rabbit, 1:2000) primary antibodies in TBST-5% BSA solution. Membranes were washed in TBS-T, incubated for one-hour in HRP-linked anti-rabbit or anti-mouse secondary antibodies in TBST-5% milk, and washed in TBS-T. Bands were developed using west-pico or west-femto chemiluminescent substrate reagents.
# [2] = tested on: Rb-proficient (MDAMB231) and Rb-deficient (BT549 and MDAMB436) TNBC cells; assay: CV proliferation assay, TNBC cells (statements across lines); type: cell-based; conditions: for inhibition of growth of TNBC cells: MDAMB231, BT549, MDAMB436, CV assay; for induction of apoptosis: MDAMB231 and BT549 cells (FIG. 4A and TABLE 1)
# Procedure: (§1) Cell proliferation rates were determined using crystal violet assays. One thousand cells per well were plated in 96 well tissue culture plates and treated the following day with a bifunctional compound or control for 7 days in replicates of 8. Cells were fixed with 25% glutaraldehyde for 10 minutes with shaking, washed 5 times with distilled water, stained with a 1% crystal violet solution (solubilized in 25% methanol) for 10 minutes, washed again 5 times and allowed to dry. De-staining was performed using […] sodium citrate in 50% ethanol followed by quantification using a 96 well spectrophotometer set at an absorbance of 550 nm.
# as §1, with “using CV” for “using crystal violet”, “assays. Two” for “assays. One”, “thousand (2000) or 4000” for “thousand”, “for 6” for “for 7”, “of 6.” for “of 8.”
# MCF7AC1 cells = assay: CV proliferation assay, ER+ MCF7AC1; type: cell-based
# Procedure: as §1
# as §1, with “using CV” for “using crystal violet”, “assays. Two” for “assays. One”, “thousand (2000) or 4000” for “thousand”, “for 6” for “for 7”, “of 6.” for “of 8.”
# MDAMB436 cells = assay: Crystal violet (CV) proliferation assay, MDAMB436; type: cell-based; conditions: MDAMB436 (PKCß1 low, Rb negative), 2000 cells
# Procedure: as §1, with “One thousand cells per well were plated in 96 well tissue culture plates and treated the following day with a bifunctional compound or control for 7 days in replicates of 8.” left out
# MDAMB231 cells = assay: Crystal violet (CV) proliferation assay, MDAMB231; type: cell-based; conditions: MDAMB231 (PKCß1 high, Rb positive), 2000 cells
# Procedure: as §1, with “One thousand cells per well were plated in 96 well tissue culture plates and treated the following day with a bifunctional compound or control for 7 days in replicates of 8.” left out
# BT549 cells = assay: Crystal violet (CV) proliferation assay, BT549; type: cell-based; conditions: BT549 (PKCß1 high, Rb negative), 2000 cells
# Procedure: as §1, with “One thousand cells per well were plated in 96 well tissue culture plates and treated the following day with a bifunctional compound or control for 7 days in replicates of 8.” left out
# KURAMOCHI cells = assay: CV proliferation assay, KURAMOCHI ovarian cancer cells; type: cell-based; conditions: KURAMOSHI (PKCß1 low), 1000 cells/well
# Procedure: as §1
# (§2) Based on the potent anti-proliferative activity of ENDX-PROTACs TC-Pr-006, TC-Pr-007, TC-Pr -008, and TC-Pr -009 in TNBC cells, the efficacy of these compounds for inhibiting the growth of ovarian cancer cells was tested. This analysis utilized KURAMOCHI cells, which represent the high-grade serous subtype (the most malignant form that accounts for 70% of all ovarian cancers and associates with poor clinical outcome) and MDAH-2774 cells, which represent endometrioid ovarian cancer and accounts for 20% of all ovarian cancer. PKCβ1 was confirmed to be expressed in both ovarian cancer cell line models, with MDAH-2774 cells expressing higher amounts of PKCβ1 compared to KURAMOCHI cells (FIG. 5A).
# MDAH-2774 cells = assay: CV proliferation assay, MDAH-2774 ovarian cancer cells; type: cell-based; conditions: MDAH-2774 (PKCß1 high), 1000 cells/well
# Procedure: as §1, §2
# PKCβ1 = molecular target: T1, PKCβ1 (Homo sapiens, UniProt P05771); assay: Western blot, PKCβ1 expression in MCF7AC1 cells; type: cell-based; conditions: 1 μM, within 72 hours, drugs replenished every 24 hours
# T1 construct: western blots showing expression of PKCβ1 in MCF7AC1 cells treated with 1 μM concentration of the ENDX-PROTACs or ENDX; endogenous in cells; host or cells: MCF7AC1 (ER+ breast cancer cells)
# T1 sequence (P05771 whole entry): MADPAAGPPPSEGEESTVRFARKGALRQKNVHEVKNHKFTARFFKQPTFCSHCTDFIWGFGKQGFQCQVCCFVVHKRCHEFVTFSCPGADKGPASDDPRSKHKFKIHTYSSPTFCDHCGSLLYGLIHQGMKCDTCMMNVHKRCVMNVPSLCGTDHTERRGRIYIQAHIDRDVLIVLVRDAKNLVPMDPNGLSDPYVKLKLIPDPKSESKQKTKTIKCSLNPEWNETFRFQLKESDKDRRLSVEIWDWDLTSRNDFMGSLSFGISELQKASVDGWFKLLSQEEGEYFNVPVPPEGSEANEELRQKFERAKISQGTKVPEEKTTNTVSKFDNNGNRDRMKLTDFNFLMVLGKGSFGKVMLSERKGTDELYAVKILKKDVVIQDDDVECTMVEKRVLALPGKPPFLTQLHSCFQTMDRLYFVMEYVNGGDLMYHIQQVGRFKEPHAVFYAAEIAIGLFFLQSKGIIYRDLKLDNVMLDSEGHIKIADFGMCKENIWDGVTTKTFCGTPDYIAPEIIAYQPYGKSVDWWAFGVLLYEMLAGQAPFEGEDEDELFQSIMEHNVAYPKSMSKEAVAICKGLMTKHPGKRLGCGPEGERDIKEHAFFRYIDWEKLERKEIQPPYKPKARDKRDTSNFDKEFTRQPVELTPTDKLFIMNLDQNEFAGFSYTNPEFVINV
# Procedure: For western blotting analysis, cells were treated with vehicle (DMSO) or 1 μM of the indicated ENDX-PROTAC's or parent drug ENDX for 24, 48 and 72 hours with the drugs replenished every 24 hours. 25 μg of protein lysates were run on 10% Bis-Tris XT Criterion precast SDS-PAGE gels and transferred on to PVDF membrane. Following blocking with TB ST-5% milk, the membranes were probed with primary antibodies (1:500 — 1:2000 dilutions) for PKCβ1 (Abcam #136917), ERα (SC #8002), E2F1 (SC #251) and Actin (CS#8457) in TBST-5% BSA and secondary antibodies (1:2000 dilution) in TBST-5% milk. Membranes were developed using chemiluminescent WestPico or WestFemto detection solutions on the Li-Cor Imaging system.
# [3] = Pharmacokinetics in mice, plasma by UPLC-MS/MS; type: in vivo, female CD1 mice; conditions: for Concentration ENDX PROTAC 9: PO 10 mg/kg, mouse plasma, individual samples
# Procedure: ENDX PROTAC 7 and PROTAC 9 pharmacokinetics were characterized in female CD1 mice. Blood samples were collected from mice anesthetized under isoflurane via retro-orbital eye bleed into tubes containing EDTA and immediately chilled on ice. NaF was added to the EDTA collection tubes to help stabilize the drug in whole blood for the second IV and IP studies with ENDX PROTAC 9, and for the IV and oral studies with PROTAC 7. Plasma and red blood cells were separated immediately by centrifugation in a refrigerated centrifuge at 4° C. The plasma was transferred to a separate tube and immediately frozen at −20° C.
# For IV dosing, ENDX PROTAC 9 was dissolved in 10% DMSO, 10% PEG 400, and 80% normal saline for a final concentration of 0.2 mg/mL ENDX PROTAC 9 for the 1 mg/kg IV doses. ENDX PROAC 7 was dissolved in 15% DMSO, 9.44% PEG400, and […] normal saline for a final concentration of 0.19 mg/mL for the 1 mg/kg IV doses. Blood samples (3 mice per time-point) were collected 5 minutes, 15 minutes, 0.5 hour, 1 hour, 2 hours, 4 hours, 8 hours, and 24 hours after administration of the ENDX PROTAC. A second IV study was performed for ENDX PROTAC 9 in which blood samples (3 mice per time-point) were collected 5 minutes, 15 minutes, 1 hour, and 2 hours after administration of ENDX PROTAC 9. For oral dosing, ENDX PROTAC 9 (10 mg/kg) and ENDX PROTAC 7 (10 mg/kg) were suspended in 1 mM ascorbic acid:PEG400, 1:1 v/v for a final concentration of 1.0 mg/mL ENDX PROTAC. Blood samples (three mice per time-point) were collected 15 minutes, 0.5 hour, 1 hour, 2 hours, 4 hours, 6 hours, 8 hours, and 24 hours after administering the ENDX PROTAC. For LP. dosing, ENDX PROTAC 9 (4 mg/kg) was prepared in 1 mM ascorbic acid:PEG400, 1:1 v/v for a final concentration of 0.4 mg/mL ENDX PROTAC 9. Blood samples (three mice per time-point) were collected 15 minutes, 0.5 hour, 1 hour, 2 hours, 4 hours, 6 hours, 8 hours, and 24 hours after administration. Plasma concentrations of ENDX PROTAC 7 and 9 were measured using UPLC-MS/MS.
smiles,measurement,setting,value
CC/C(=C(\c1ccc(O)cc1)c1ccc(OCCN(C)C(=O)COCCOCCN(C)C(=O)Cc2ccc3c(c2)CN(C2CCC(=O)NC2=O)C3=O)cc1)c1ccccc1 (stereo not shown) [Pr-9-1],"impact on PKCβ1, E2F1, and Cyclin D1 protein expression",[1],lack of impact
same,inhibition of growth of TNBC cells,[2],"did not inhibit growth of MDAMB231, BT549, or MDAMB436 TNBC cells as effectively"
same,inhibition of growth of ER+ MCF7AC1 cells,MCF7AC1 cells,inhibited growth of ER+ MCF7AC1 cells
CC/C(=C(\c1ccc(O)cc1)c1ccc(OCCN(C)C(=O)COCCO[C@@H]2CCN(C(=O)Cc3ccc4c(c3)CN(C3CCC(=O)NC3=O)C4=O)C2)cc1)c1ccccc1 (stereo partly shown) [Pr-9-4],"impact on PKCβ1, E2F1, and Cyclin D1 protein expression",[1],lack of impact
same,inhibition of growth of TNBC cells,[2],"did not inhibit growth of MDAMB231, BT549, or MDAMB436 TNBC cells as effectively"
same,inhibition of growth of ER+ MCF7AC1 cells,MCF7AC1 cells,inhibited growth of ER+ MCF7AC1 cells
CC/C(=C(\c1ccc(O)cc1)c1ccc(OCCN(C)C(=O)COCCNC(=O)c2cccc3c2CN([C@H]2CCC(=O)NC2=O)C3=O)cc1)c1ccccc1 [TC-Pr-001],IC50,MDAMB436 cells,10000 nM
same,IC50 (result in words),MDAMB231 cells,No major killing
same,IC50 (result in words),BT549 cells,No major killing
CC/C(=C(\c1ccc(O)cc1)c1ccc(OCCN(C)C(=O)CCOCCNC(=O)c2cccc3c2CN([C@H]2CCC(=O)NC2=O)C3=O)cc1)c1ccccc1 [TC-Pr-002],IC50 (result in words),MDAMB436 cells,No major killing
same,IC50 (result in words),MDAMB231 cells,No major killing
same,IC50 (result in words),BT549 cells,No major killing
CC/C(=C(\c1ccc(O)cc1)c1ccc(OCCN(C)C(=O)COCCOCCNC(=O)c2cccc3c2CN([C@H]2CCC(=O)NC2=O)C3=O)cc1)c1ccccc1 [TC-Pr-003],Approximate IC50 (result in words),KURAMOCHI cells,No killing
same,IC50 (result in words),MDAMB436 cells,No major killing
same,IC50 (result in words),MDAMB231 cells,No major killing
same,IC50 (result in words),BT549 cells,No major killing
same,Approximate IC50 (result in words),MDAH-2774 cells,No killing
CC/C(=C(\c1ccc(O)cc1)c1ccc(OCCN(C)C(=O)COCCNC(=O)c2ccc3c(c2)CN([C@H]2CCC(=O)NC2=O)C3=O)cc1)c1ccccc1 [TC-Pr-004],IC50,MDAMB436 cells,10000 nM
same,IC50 (result in words),MDAMB231 cells,No major killing
same,IC50 (result in words),BT549 cells,"No major killing,"
CC/C(=C(\c1ccc(O)cc1)c1ccc(OCCN(C)C(=O)CCOCCNC(=O)c2ccc3c(c2)CN([C@H]2CCC(=O)NC2=O)C3=O)cc1)c1ccccc1 [TC-Pr-005],IC50,MDAMB436 cells,100 to 1000 nM
same,IC50,MDAMB231 cells,> 10000 nM
same,IC50,BT549 cells,> 10000 nM
CC/C(=C(\c1ccc(O)cc1)c1ccc(OCCN(C)C(=O)COCCOCCNC(=O)c2ccc3c(c2)CN([C@H]2CCC(=O)NC2=O)C3=O)cc1)c1ccccc1 [TC-Pr-006],IC50,KURAMOCHI cells; read-out: Approximate IC50,> 10 µM
same,IC50,MDAMB436 cells,333 nM
same,IC50,MDAMB231 cells,532 nM
same,IC50,BT549 cells,482 nM
same,IC50,MDAH-2774 cells; read-out: Approximate IC50,> 10 µM
CC/C(=C(\c1ccc(O)cc1)c1ccc(OCCN(C)C(=O)CCOCCNC(=O)Cc2ccc3c(c2)CN([C@H]2CCC(=O)NC2=O)C3=O)cc1)c1ccccc1 [TC-Pr-008],IC50,MDAMB436 cells,74 nM
same,IC50,MDAMB231 cells,131 nM
same,IC50,BT549 cells,225 nM
same,PKCβ1 polypeptide degradation,PKCβ1,rapidly degraded PKCβ1 polypeptides
same,induction of apoptosis,[2],induced apoptosis
"CCC(=C(c1ccc(O)cc1)c1ccc(OCCN(C)C(=O)COCCOCCNC(=O)Cc2ccc3c(c2)CN(C2CCC(=O)NC2=O)C3=O)cc1)c1ccccc1 (stereo not shown) [TC-Pr-009, 2-[2-(2-2-[2-(2,6-dioxopiperidin-3-yl)-1-oxo-2,3-dihydro-1H-isoindo1-5-yl]acetamidoethoxy)ethoxy]-N-(2-4-[1-(4-hydroxyphenyl)-2-phenylbut-1-en-1-yl]phenoxyethyl)-N-methylacetamide]",PKCβ1 protein levels,[1],altered to varying extent
same,protein levels of E2F1 and Cyclin D1,[1]; listed as Pr-9,clearly reduced by 48 hours; also recorded: reduced protein levels
same,PKCβ1 polypeptide degradation,PKCβ1,rapidly degraded PKCβ1 polypeptides
same,induction of apoptosis,[2],induced apoptosis
same,Concentration ENDX PROTAC 9,"[3]; 120 minutes, listed as ENDX PROTAC 9, 10 mg/kg",BLD*
same,Concentration ENDX PROTAC 9,"[3]; 360 minutes, listed as ENDX PROTAC 9, 10 mg/kg",BLD
same,Concentration ENDX PROTAC 9,"[3]; 480 minutes, listed as ENDX PROTAC 9, 10 mg/kg",BLD
same,Concentration ENDX PROTAC 9,[3]; 1440 minutes,BLD
same,time of peak plasma concentration,"[3]; mice, I.V. 1 mg/kg, second study, NaF added to EDTA tubes",5 min
same,stability in whole blood,"[3]; mouse whole blood, comparison of IV studies with and without NaF",unstable in whole blood
